# Measurements: patent publication US20030170893A1, “NANOCAPSULE ENCAPSULATION SYSTEM AND METHOD” (Genesegues, Inc., priority 2000, published 2003)
# Experiments:
# [1] = system: human dermal fibroblast (HDF) cultures; test: Cell growth inhibition, MTT assay, fibroblasts; format: cell-based; details: 18 hours treatment, 72 hours total growth time
# Description: Cells were seeded overnight into 96 well plates, treated for 18 hours with increasing amounts of encapsulated or unencapsulated drug, then assessed for cell growth inhibition using an MTT assay 48 hours later for total growth time of 72 hours.
# [2] = system: squamous cell carcinoma cultures; test: Cell growth inhibition, MTT assay, carcinoma; format: cell-based, human; details: 18 hours treatment, 72 hours total growth time
# Description: FIG. 6C: Carcinoma cells and HDF's were seeded overnight into 96 well plates at 2000 and 6000 cells per well respectively. Cisplatin preparations were added to wells for 18 hours as noted on the graph than washed out. After 72 hours cell viability of assessed by a commercial MTT assay (WST assay, Boehringer Mannheim). Wells were executed in duplicate.
# Nanocapsules were prepared as described in Example 1 to encapsulate cisplatin, a […] molecule and a common cancer chemotherapeutic with serious side effects. A coating weight ratio of 1:100 was used and irregular nanocapsules of 29±3 nm were produced. […] Cells were seeded overnight into 96 well plates, treated for 18 hours with increasing amounts of encapsulated or unencapsulated drug, then assessed for cell growth inhibition using an MTT assay […] for total growth time of 72 hours. Results are illustrated in FIG. 6C.
smiles,measurement,setting,value
"N.N.[Cl][Pt][Cl] [unencapsulated drug, cisplatin]",Cell death of nontarget cells,[1],killed
same,inhibition concentration (IC50),[2],525 µg/mL
